Source: patent US7417156B2, “Orally active, antimalarial, anticancer, artemisinin-derived trioxane dimers” (Johns Hopkins University, priority 2002, dated 2008)

Key:
CAKI-1 = assay: NCI 60 cell line panel screen (SRB); format: cell-based, human
OVCAR-3 = assay: NCI 60 cell line panel screen (SRB); format: cell-based, human
EKVX = assay: NCI 60 cell line panel screen (SRB); format: cell-based, human
BT-549 = assay: NCI 60 cell line panel screen (SRB); format: cell-based, human
RPMI-8226 = assay: NCI 60 cell line panel screen (SRB); format: cell-based, human
IGROVI = assay: NCI 60 cell line panel screen (SRB); format: cell-based, human; settings: IGROVI (Ovarian Cancer)
NCI-H23 = assay: NCI 60 cell line panel screen (SRB); format: cell-based, human
T-47D = assay: NCI 60 cell line panel screen (SRB); format: cell-based, human
[1] = tested on: chloroquine-sensitive P. falciparum (NF54); assay: Antimalarial activity in vitro, [3H]hypoxanthine incorporation; format: cell-based; settings: Table I; NF54 strain; read-out: IC50
SK-MEL-28 = assay: NCI 60 cell line panel screen (SRB); format: cell-based, human
PC-3 = assay: NCI 60 cell line panel screen (SRB); format: cell-based, human
SNB-75 = assay: NCI 60 cell line panel screen (SRB); format: cell-based, human; settings: SNB-75 (CNS Cancer)
SF-539 = assay: NCI 60 cell line panel screen (SRB); format: cell-based, human
HCT-116 = assay: NCI 60 cell line panel screen (SRB); format: cell-based, human
HOP-62 = assay: NCI 60 cell line panel screen (SRB); format: cell-based, human
NCI/ADR-RES = assay: NCI 60 cell line panel screen (SRB); format: cell-based, human
K-562 = assay: NCI 60 cell line panel screen (SRB); format: cell-based, human
OVCAR-8 = assay: NCI 60 cell line panel screen (SRB); format: cell-based, human
NCI-H460 = assay: NCI 60 cell line panel screen (SRB); format: cell-based, human
NCI-H322M = format: cell-based
UACC-257 = assay: NCI 60 cell line panel screen (SRB); format: cell-based, human; settings: UACC-257 (Melanoma)
60 cell line panel = format: cell-based
HOP-92 = assay: NCI 60 cell line panel screen (SRB); format: cell-based, human
SK-OV-3 = assay: NCI 60 cell line panel screen (SRB); format: cell-based, human
RXF 393 = assay: NCI 60 cell line panel screen (SRB); format: cell-based, human
SNB-19 = assay: NCI 60 cell line panel screen (SRB); format: cell-based, human
HT29 = assay: NCI 60 cell line panel screen (SRB); format: cell-based, human
[2] = mean value over the 60 cell line panel

CC1CCC2C(C)C(CC(O)(CC3OC4OC5(C)CCC6C(C)CCC(C3C)C46OO5)CS(=O)(=O)c3ccc(C(=O)O)cc3)OC3OC4(C)CCC1C32OO4 (stereo not drawn) [Compound 10c, bis-trioxane β-hydroxysulfone benzoic acid]
Log10LC50 (CAKI-1; CAKI-1 (Renal Cancer), LC50: PG=−50): −4.93 log10M | Log10TGI50 (CAKI-1; CAKI-1 (Renal Cancer), TGI: PG=0): −6.71 log10M | Log10GI50 (CAKI-1; Renal Cancer, CAKI-1): <−8.30 | Log10LC50 (OVCAR-3; OVCAR-3 (Ovarian Cancer), LC50: PG=−50): −5.01 log10M | Log10TGI50 (OVCAR-3; OVCAR-3 (Ovarian Cancer), TGI: PG=0): <−8.30 log10M | Log10GI50 (OVCAR-3; Ovarian Cancer, OVCAR-3): <−8.30 | Log10LC50 (EKVX; EKVX (Non-Small Cell Lung Cancer), LC50: PG=−50): >−4.30 log10M | Log10TGI50 (EKVX; EKVX (Non-Small Cell Lung Cancer), TGI: PG=0): −4.63 log10M | Log10GI50 (EKVX; Non-Small Cell Lung Cancer, EKVX): −4.99 | Log10LC50 (BT-549; BT-549 (Breast Cancer), LC50: PG=−50): −4.61 log10M | Log10TGI50 (BT-549; BT-549 (Breast Cancer), TGI: PG=0): −5.54 log10M | Log10GI50 (BT-549; Breast Cancer, BT-549): −6.67 | Log10GI50 (RPMI-8226; Leukemia, RPMI-8226): <−8.30 | Log10LC50 (RPMI-8226; RPMI-8226 (Leukemia), LC50: PG=−50): >−4.30 log10M | Log10TGI50 (RPMI-8226; RPMI-8226 (Leukemia), TGI: PG=0): −5.03 log10M | Log10LC50 (IGROVI; LC50: PG=−50): >−4.30 log10M | Log10TGI50 (IGROVI; TGI: PG=0): >−4.30 log10M | Log10LC50 (NCI-H23; NCI-H23 (Non-Small Cell Lung Cancer), LC50: PG=−50): −4.77 log10M | Log10TGI50 (NCI-H23; NCI-H23 (Non-Small Cell Lung Cancer), TGI: PG=0): −5.25 log10M | Log10GI50 (NCI-H23; Non-Small Cell Lung Cancer, NCI-H23): <−8.30 | Log10GI50 (T-47D; Breast Cancer, T-47D): <−8.30 | Log10LC50 (T-47D; T-47D (Breast Cancer), LC50: PG=−50): >−4.30 log10M | IC50 [1]: 2.4 nM | Log10GI50 (SK-MEL-28; Melanoma, SK-MEL-28): −5.45 | Log10LC50 (SK-MEL-28; SK-MEL-28 (Melanoma), LC50: PG=−50): >−4.30 log10M | Log10TGI50 (SK-MEL-28; SK-MEL-28 (Melanoma), TGI: PG=0): −4.63 log10M | Log10LC50 (PC-3; PC-3 (Prostate Cancer), LC50: PG=−50): −4.62 log10M | Log10TGI50 (PC-3; PC-3 (Prostate Cancer), TGI: PG=0): −5.23 log10M | Log10GI50 (PC-3; Prostate Cancer, PC-3): <−8.30 | Log10LC50 (SNB-75; LC50: PG=−50): −4.32 log10M | Log10TGI50 (SNB-75; TGI: PG=0): −4.80 log10M | Log10GI50 (SF-539; CNS Cancer, SF-539): −5.19 | Log10LC50 (SF-539; SF-539 (CNS Cancer), LC50: PG=−50): >−4.30 log10M | Log10TGI50 (SF-539; SF-539 (CNS Cancer), TGI: PG=0): −4.66 log10M | Log10GI50 (HCT-116; Colon Cancer, HCT-116): <−8.30 | Log10LC50 (HCT-116; HCT-116 (Colon Cancer), LC50: PG=−50): −4.72 log10M | Log10TGI50 (HCT-116; HCT-116 (Colon Cancer), TGI: PG=0): −5.16 log10M | Log10LC50 (HOP-62; HOP-62 (Non-Small Cell Lung Cancer), LC50: PG=−50): −4.62 log10M | Log10TGI50 (HOP-62; HOP-62 (Non-Small Cell Lung Cancer), TGI: PG=0): −5.01 log10M | Log10GI50 (HOP-62; Non-Small Cell Lung Cancer, HOP-62): <−8.30 | Log10GI50 (NCI/ADR-RES; Breast Cancer, NCI/ADR-RES): −5.73 | Log10LC50 (NCI/ADR-RES; NCI/ADR-RES (Breast Cancer), LC50: PG=−50): −4.63 log10M | Log10TGI50 (NCI/ADR-RES; NCI/ADR-RES (Breast Cancer), TGI: PG=0): −5.09 log10M | Log10LC50 (K-562; K-562 (Leukemia), LC50: PG=−50): >−4.30 log10M | Log10TGI50 (K-562; K-562 (Leukemia), TGI: PG=0): −4.75 log10M | Log10GI50 (K-562; Leukemia, K-562): <−8.30 | Log10LC50 (OVCAR-8; OVCAR-8 (Ovarian Cancer), LC50: PG=−50): >−4.30 log10M | Log10TGI50 (OVCAR-8; OVCAR-8 (Ovarian Cancer), TGI: PG=0): −4.48 log10M | Log10GI50 (OVCAR-8; Ovarian Cancer, OVCAR-8): −5.25 | Log10LC50 (NCI-H460; NCI-H460 (Non-Small Cell Lung Cancer), LC50: PG=−50): −4.62 log10M | Log10TGI50 (NCI-H460; NCI-H460 (Non-Small Cell Lung Cancer), TGI: PG=0): −5.11 log10M | Log10GI50 (NCI-H460; Non-Small Cell Lung Cancer, NCI-H460): <−8.30 | Log10GI50 (NCI-H322M): −6.03 | Log10TGI50 (NCI-H322M): −4.98 log10M | Log10LC50 (NCI-H322M; NCI-H322M (Non-Small Cell Lung Cancer), LC50: PG=−50): −4.57 log10M | Log10LC50 (UACC-257; LC50: PG=−50): >−4.30 log10M | Log10TGI50 (UACC-257; TGI: PG=0): −4.38 log10M | Log10GI50 Delta (60 cell line panel): −0.73 | Log10GI50 Range (60 cell line panel): 3.48 | Log10LC50 Delta (60 cell line panel; 60 cell line panel): 1.00 | Log10LC50 Range (60 cell line panel; 60 cell line panel): 1.25 | Log10TGI50 Delta (60 cell line panel; 60 cell line panel): 2.79 | Log10TGI50 Range (60 cell line panel; 60 cell line panel): 4.00 | growth inhibition in words (60 cell line panel; colon cancer KM12, ovarian cancer OVCAR 3, breast cancer MDA-MB-435): selectively and strong inhibitory | Log10GI50 MG MID (60 cell line panel; mean over panel): −7.57 | Log10LC50 MG MID (60 cell line panel; [2]): −4.55 log10M | Log10TGI50 MG MID (60 cell line panel; [2]): −5.51 log10M | Log10LC50 (HOP-92; HOP-92 (Non-Small Cell Lung Cancer), LC50: PG=−50): −4.52 log10M | Log10TGI50 (HOP-92; HOP-92 (Non-Small Cell Lung Cancer), TGI: PG=0): −5.05 log10M | Log10GI50 (HOP-92; Non-Small Cell Lung Cancer, HOP-92): <−8.30 | Log10GI50 (SK-OV-3; Ovarian Cancer, SK-OV-3): −6.82 | Log10LC50 (SK-OV-3; SK-OV-3 (Ovarian Cancer), LC50: PG=−50): −4.47 log10M | Log10TGI50 (SK-OV-3; SK-OV-3 (Ovarian Cancer), TGI: PG=0): −4.92 log10M | Log10LC50 (RXF 393; RXF 393 (Renal Cancer), LC50: PG=−50): −4.73 log10M | Log10TGI50 (RXF 393; RXF 393 (Renal Cancer), TGI: PG=0): −5.99 log10M | Log10GI50 (RXF 393; Renal Cancer, RXF 393): <−8.30 | Log10GI50 (SNB-19; CNS Cancer, SNB-19): −6.72 | Log10LC50 (SNB-19; SNB-19 (CNS Cancer), LC50: PG=−50): −4.44 log10M | Log10TGI50 (SNB-19; SNB-19 (CNS Cancer), TGI: PG=0): −4.96 log10M | Log10GI50 (HT29; Colon Cancer, HT29): <−8.30 | Log10LC50 (HT29; HT29 (Colon Cancer), LC50: PG=−50): >−4.30 log10M | Log10TGI50 (HT29; HT29 (Colon Cancer), TGI: PG=0): >−4.30 log10M
